Results: publication PMC8752837, “Structural basis of BAK activation in mitochondrial apoptosis initiation” (Nature Communications, 2022)

Columns and labels:
Human BAK-∆TM-His6 (BAK) = molecular target: T1, Human BAK-∆TM-His6 (BAK) (Homo sapiens, UniProt Q16611); experiment: Liposome permeabilization assay (ANTS/DPX dye release from LUVs): activation of WT BAK by BH3 peptides;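 as to AUC for Experiment-2 (Mean): traces normalized between buffer minimum and 3% CHAPS maximum fluorescence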;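 as to AUC for Experiment-3 (Mean): traces normalized between buffer minimum and 3% CHAPS maximum fluorescence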; assay type: biochemical; design: AUC for Experiment-2 (Mean) / AUC for Experiment-3 (Mean) / AUC for Experiment-1 (Mean):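 traces normalized between buffer minimum and 3% CHAPS maximum fluorescence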; settings: for AUC for Experiment-1 (Mean) / AUC for Experiment-2 (Mean) / AUC for Experiment-3 (Mean): AUC 0-88 mins of liposome permeabilization; for AUC for Experiment-1 (Mean): Experiment-1, mean of N replicates; for AUC for Experiment-2 (Mean): Experiment-2, mean of N replicates; for AUC for Experiment-3 (Mean): Experiment-3, mean of N replicates; for EC50: Fig. 4e, 50 nM BAK, AUC vs peptide dose (Suppl. Fig. 6b), n = 2 experiments each of n = 3 technical replicates, read-out: EC50 LP
T1 construct: C-terminus truncated recombinant human BAK containing C-terminal 6× histidine tag (MEAS-BAK); made in house; host or cells: E. coli T7 Express pLac I/Y
T1 sequence (Q16611 1-186 limits assumed): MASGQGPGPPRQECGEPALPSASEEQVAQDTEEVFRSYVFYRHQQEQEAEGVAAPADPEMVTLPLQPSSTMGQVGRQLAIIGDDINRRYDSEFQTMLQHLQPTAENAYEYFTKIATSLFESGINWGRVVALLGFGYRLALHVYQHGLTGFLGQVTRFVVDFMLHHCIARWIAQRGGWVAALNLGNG
Experimental: We performed liposome permeabilization assays as previously described[43]–[46]. […] We mixed the lipid film in ANTS/DPX solution by vortexing and sonication (~15 min) followed by extrusion through polycarbonate membrane of 2 μm pore size (Avanti Polar lipids) to generate homogenous large unilamellar vesicles (LUVs). We separated LUVs from free ANTS/DPX by S500 size exclusion chromatography and stored them at 4 °C in the dark. We prepared peptide and protein dilutions in 96-well black flat bottom plates (Costar) kept on ice. […] We quantified liposome permabilization by integrating area under curve (AUC) of normalized traces based on the Simpson’s equation, and analyzed that data in Excel and GraphPad Prism. AUC measurements reflect the kinetic and extent of liposome permeabilization and provide quantitative means for comparison between different experimental conditions (e.g., BAK mutants with gross or partial variation in activity).

GST-BAK = molecular target: T2, GST-BAK (Homo sapiens, UniProt Q16611); experiment: Competitive fluorescence polarization assay (displacement of BID BH3 SAHB-F); assay type: binding; settings: displacement of 10 nM BID BH3 SAHB-fluorescein from 1 µM GST-BAK; peptide 500−0.2 µM; 60 min RT; mean ± SD, n = 9 experiments; read-out: IC50 FP
T2 construct: made in house
T2 sequence (Q16611 1-211): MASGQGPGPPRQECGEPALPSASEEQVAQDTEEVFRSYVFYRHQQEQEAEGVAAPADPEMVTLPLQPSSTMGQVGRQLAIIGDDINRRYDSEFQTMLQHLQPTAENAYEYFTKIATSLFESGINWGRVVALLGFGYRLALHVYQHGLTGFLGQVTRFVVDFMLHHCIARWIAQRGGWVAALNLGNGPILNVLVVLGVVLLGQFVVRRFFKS
Description: We also tested the monosubstituted peptides in competitive fluorescence polarization (FP) binding assays, which measure displacement from GST-BAK of BID BH3 stabilized alpha helix of BCL-2 proteins (SAHB) C-terminally tagged with fluorescein and thus informs on peptide binding affinity.
We carried out fluorescence polarization assays, measuring the displacement of the fluorescent peptide BID BH3 SAHB-F from GST-BAK, in 384-well Greiner black polystyrene plates with flat bottom (Sigma-Aldrich). Master mix consisted of 50 mM Tris-HCl pH 7.5, 50 mM KCl, 0.1 mg/mL BSA, 2 mM DTT, 0.005% Tween-20, 10 nM BID BH3 SAHB-F, and 1 µM GST-BAK. We pin transferred peptides using Biomek FX (Beckman Coulter Life Sciences, IN) to achieve final concentration of 500−0.2 µM in 20 µL final volume. We gently centrifuged plates to remove air bubbles for 1 min at 1000 rpm, and incubated them for 60 min at RT. […] Free peptide controls in each plate consisted of only BID BH3 SAHB-F and bound peptide controls containing BID BH3 SAHB-F + GST-BAK. We derived Z’-values using the equation [1 − 3(stdev^L + stdev^H)]/(average^H − average^L), where L is the free peptide control and H is the bound peptide control. […] We processed and visualized data using the software Robust Investigation of Screening Experiments (RISE) developed in house in the Pipeline Pilot platform (Accelrys, v.8.5.0). We performed at least three independent dose-response experiments for each peptide. We estimated IC50 values in RISE and GraphPad Prism v.8.0a.

| AUC for Experiment-1 (Mean) (Human BAK-∆TM-His6 (BAK); 1 μM peptide + 50 nM BAK) | AUC for Experiment-2 (Mean) (Human BAK-∆TM-His6 (BAK); 1 μM peptide + 50 nM BAK) | AUC for Experiment-3 (Mean) (Human BAK-∆TM-His6 (BAK); 1 μM peptide + 50 nM BAK) | AUC for Experiment-1 (Mean) (Human BAK-∆TM-His6 (BAK); 50 μM peptide + 50 nM BAK) | AUC for Experiment-2 (Mean) (Human BAK-∆TM-His6 (BAK); 50 μM peptide + 50 nM BAK) | AUC for Experiment-3 (Mean) (Human BAK-∆TM-His6 (BAK); 50 μM peptide + 50 nM BAK) | EC50 (Human BAK-∆TM-His6 (BAK)) [µM] | IC50 (GST-BAK) [µM] | Substance |
| --- | --- | --- | --- | --- | --- | --- | --- | --- |
| 14.1 | 10.652 | 12.187 | 18.672 | 10.496 | 13.717 | 0.372 ± 0.116 | 6.2 ± 1.5 | Ac-EDIIRNIARHLAQYGDSMDRSI-NH2 [Y(3)] |
| 14.3256 | 13.2515 | 14.8765 | 13.3871 | 11.7489 | 12.1647 | 0.365 ± 0.0228 | 10.8 ± 5.5 | Ac-EDWIRNIARHLAQVGDSMDRSI-NH2 [W(0)] |
